We go through 13 compounds from patent publication US4199598A, “Method of treating noradrenaline dysfunction or for dopamine-β-hydroxylase inhibition” (Richter Gedeon Vegyeszeti Gyar Rt., priority 1976, dated 1980).

The subject of data set [1] is dopamine-β-hydroxylase. Conditions: in words, prior art; cited from earlier work.
The subject of data set [2] is dopamine-β-hydroxylase. Put plainly: Noradrenaline content of spleen (dopamine-β-hydroxylase inhibiting effect). The format is in vivo, male Wister rats. Conditions: Rattus norvegicus, ip, read-out: Amine level, spleen NA (noradrenaline). How it is done:
(§1) The dopamine-β-hydroxylase inhibiting effects of the compounds according to the invention were examined by the following tests:
(§2) The tests were performed on male Wister rats weighing 150 to 200 g. The dopamine-β-hydroxylase inhibiting effects of the compounds were evaluated by determining the change of noradrenaline, dopamine and adrenaline levels of the cerebrum, heart, spleen and adrenal gland. The serotonine and 5-hydroxy-indolyl-acetic acid levels of the cerebrum were also determined. The measurements were performed as follows:
(§3) The animals were decapitated, the cerebrum, heart, spleen and adrenal gland were removed quickly, and the organs were frozen by placing them onto a metal sheet cooled with dry ice. The frozen organs were stored for a maximum of one night at -20° C.
(§4) Determination of the noradrenaline content of heart and spleen
(§5) The organs were weighed in frozen state and then homogenized in 5.0 ml of 0.4 N perchloric acid containing 0.05% of EDTA-Na2 and 0.1% of Na2 S2 O5. The homogenized mixtures were centrifuged as described above for the treatment of adrenal gland, the supernatants were decanted, and the pH was adjusted to 8.0±0.1 with a 0.1 molar tris buffer containing 20 g/l of NaOH and 25 g/l of EDTA-Na2. 100 mg of prepared Al2 O3 (Anton et al: J. Pharm. Ther., Vol. 138, p. 360, 1962) were added to the samples, and the mixtures were shaken mechanically for 20 minutes. Thereafter the Al2 O3 were washed with 2.10 ml of distilled water, and the noradrenaline was eluted with 1.0 ml of 0.05 N perchloric acid. 0.5 ml samples of the eluate were applied for the determination of noradrenaline.
(§6) Noradrenaline was determined according to the method of Shellenberger et al (Anal. Biochem., Vol. 39, p. 356, 1971), with the following modifications of the basic procedure: 0.5 ml of 0.1 molar Na-K-phosphate buffer, containing 9 g/l of EDTA-Na2, were added to 0.5 ml of the eluate, and the catecholamines (noradrenaline in the examination of heart and spleen and noradrenaline and dopamine in the examination of the cerebrum) were oxidized with 0.1 ml of a 0.1 N iodine solution in 5% potassium iodide. […] Thereafter the samples were placed for 5 minutes in a drying oven heated to 100° C., and then the samples were cooled with ice water. The fluorescence of noradrenaline was measured with an OPTON spectrophotometer at wavelengths of 390 nm (excitation) and 490 nm (emission).
(§7) In the tests disulfiram, 2,2-dipyridyl, bis(1-methyl-4-homopiperazinyl-thiocarbonyl)-disulfide, sodium diethyldithiocarbamate and N-phenyl-N'-(2-thiazolyl)-thiourea were used as reference substances. The values indicated in Table 1 are percentages in relation to the amine levels of the controls measured in the same tests (± Standard Error). The statistical calculations were performed on a TPA/i type computer, using Student's test.

The test system of data set [3] is dopamine-β-hydroxylase. Description: Adrenaline content of adrenal gland (dopamine-β-hydroxylase inhibiting effect). The format is in vivo, male Wister rats. Conditions: Rattus norvegicus, ip, read-out: Amine level, adrenal gland AD (adrenaline). How it is done:
as §1, §2, §3
Determination of the adrenaline content of adrenal gland
The adrenal glands were freed from fat and homogenized in 3.0 ml of ice-cold 0.4 N perchloric acid. The homogenized mixtures were centrifuged for 10 minutes at 0° C. with a speed of 3200 r.p.m. on a Janetzky K-70 type centrifuge. 0.05 ml samples were taken from the supernatant, and the adrenaline level was determined directly by the method of Laverty et al (Anal. Biochem., Vol. 22, p. 269, 1968).
as §7

Data set [4] concerns dopamine-β-hydroxylase. Description: Noradrenaline content of heart (dopamine-β-hydroxylase inhibiting effect). The format is in vivo, male Wister rats. To be noted: Rattus norvegicus, ip, read-out: Amine level, heart NA (noradrenaline). How it is done: as §1, §2, §3, §4, §5, §6, §7
The next data set can be described thus: in vivo. To be noted: mouse, ip.
For data set [5], the system named is dopamine-β-hydroxylase. Put plainly: Noradrenaline, dopamine, serotonine and 5-hydroxy-indolylacetic acid contents of cerebrum (dopamine-β-hydroxylase inhibiting effect). It is filed as in vivo, male Wister rats. Conditions: Rattus norvegicus, ip. The protocol:
as §1, §2, §3, §6
Determination of the noradrenaline, dopamine, serotonine and 5-hydroxy-indolylacetic acid contents of cerebrum
The brains were homogenized in 10 parts by volume of 0.4 N perchloric acid. The homogenized mixture was stored at -20° C. overnight; thereafter it was thawed and centrifuged as described above. A sample of homogenized mixture corresponding to 0.5 g of brain was removed, the pH of the sample was adjusted to 8.0±0.1 with 0.1 molar tris-buffer of the above composition, and the sample was processed as described above for the determination of the noradrenaline content of heart and spleen, with the difference that 1.5 ml of 0.05 N perchloric acid were applied as eluting agent. 0.5 ml of the eluate were applied to determine the noradrenaline and dopamine content. The measurement was performed as described above, with the difference that samples of 0.5 ml were applied for the recording of the fluorescence of noradrenaline. The residue was placed for 50 minutes into a drying oven heated to 100° C.; thereafter the sample was cooled with ice water, and the fluorescence of dopamine was recorded at wavelengths of 325 nm (excitation) and 380 nm (emission).
In a further test series the serotonine and 5-hydroxy-indolylacetic acid contents were also determined, in addition to the determination of the noradrenaline and dopamine contents, from the same sample. In this instance the brains were homogenized in 10 ml of 75% ethanol, 0.2 ml of EDTA-Na2 and 5% of ascorbic acid were added to the homogenized mixtures, and the homogenized mixtures were maintained at -20° C. overnight. The mixtures were then centrifuged as described above, and 5.0 ml samples of the supernatant were removed. The samples were diluted with equal volumes of distilled water, and poured onto ion-exchange columns of 0.5×1.5 cm dimensions, filled with buffered Amberlite CG-30 (200 to 400 mesh). The columns were washed with 5 ml of distilled water followed with 1.0 ml of 0.2 N hydrochloric acid, and the first effluent and the aqueous wash were collected for the determination of 5-hydroxy-indolylacetic acid. Elution was continued with further 1.2 ml of 0.2 N hydrochloric acid in order to remove noradrenaline, dopamine and serotonine. Samples of 0.3 ml were used for the determinations. […]

Where [6] appears, read: rats, i.p., 4 hours, ± Standard Error.
Where [7] appears, read: rats, i.p., 200 mg/kg, 4 hours, ± Standard Error.
The mark [8] stands for this setting: rats, i.p., 4 hours, ± Standard Error, read-out: Amine level, cerebrum DA (dopamine).
Where [9] appears, read: rats, i.p., 4 hours, ± Standard Error, read-out: Amine level, cerebrum NA (noradrenaline).
The mark [10] stands for this setting: rats, i.p., 4 hours, ± Standard Error, read-out: Amine level, cerebrum SE (serotonine).
Where [11] appears, read: rats, i.p., 200 mg/kg, 4 hours, ± Standard Error, read-out: Amine level, cerebrum DA (dopamine).
Where [12] appears, read: rats, i.p., 200 mg/kg, 4 hours, ± Standard Error, read-out: Amine level, cerebrum NA (noradrenaline).
[13] abbreviates: rats, i.p., 200 mg/kg, 4 hours, ± Standard Error, read-out: Amine level, cerebrum SE (serotonine).
Where [14] appears, read: 4 h, read-out: Amine level, cerebrum DA (dopamine).
Where [15] appears, read: 4 h, read-out: Amine level, cerebrum NA (noradrenaline).
The mark [16] stands for this setting: 4 h, read-out: Amine level, cerebrum SE (serotonine).

With `NOCc1ccccc1` [Benzyloxyamine], in the data set with dopamine-β-hydroxylase [1], the dopamine-β-hydroxylase inhibiting effects entry is given as “exert dopamine-β-hydroxylase inhibiting effects” and the duration of activity result was “exert their activities for a short period”.

As a reminder, the LD50 is the dose at which mortality reaches 50%. For the compound `COCCNC1=C(C(=S)S)CCC1` [Compound M-1, 2-(N-methoxyethyl)-amino-cyclopent-1-ene-dithiocarboxylic acid], the response vs control in vivo at 100 mg/kg amounted to 77.1 ± 8.9% in the data set with dopamine-β-hydroxylase [2] (setting [6]); 106 ± 6.1% in the data set with dopamine-β-hydroxylase [3] (setting [6]); 106 ± 10.3% with dopamine-β-hydroxylase [4] (setting [6]); 107 ± 4.7% in the data set on dopamine-β-hydroxylase [5] (setting [8]); 63.4 ± 3.6% with dopamine-β-hydroxylase [5] (setting [9]); 116 ± 4.7% in the data set with dopamine-β-hydroxylase [5] (setting [10]). The response vs control in vivo at 200 mg/kg with dopamine-β-hydroxylase [2] (setting [7]) came out at 110 ± 14.1%; in the data set with dopamine-β-hydroxylase [3] (setting [7]) it was 91.5 ± 4.7%; in the data set on dopamine-β-hydroxylase [4] (setting [7]), 110 ± 7.4%; in the data set with dopamine-β-hydroxylase [5] (setting [11]) it was 122 ± 6.7%; in the data set on dopamine-β-hydroxylase [5] (setting [12]), 64.2 ± 3.4%; in the data set on dopamine-β-hydroxylase [5] (setting [13]) it was 107 ± 2.7%. Also, in the data set with dopamine-β-hydroxylase [5] (rats, i.p., 200 mg/kg, 4 hours, ± Standard Error, read-out: Level, cerebrum 5-HIAA (5-hydroxy-indolylacetic acid)), the response vs control in vivo at 200 mg/kg was 141 ± 12.3%. The same compound gave an LD50 in the data set “in vivo” of roughly 400 mg/kg.

For the compound `CC(C)CCNC1=C(C(=S)S)CCC1` [Compound M-3, 2-(N-isoamyl)-amino-cyclopent-1-ene-dithiocarboxylic acid], the response vs control in vivo at 100 mg/kg with dopamine-β-hydroxylase [2] (setting [6]) amounted to 48.2 ± 9.5%; in the data set on dopamine-β-hydroxylase [3] (setting [6]), 86.2 ± 4.5%; in the data set with dopamine-β-hydroxylase [4] (setting [6]) it was 86.9 ± 5.9%; with dopamine-β-hydroxylase [5] (setting [8]), 103 ± 4.1%; in the data set with dopamine-β-hydroxylase [5] (setting [9]) it was 75.2 ± 1.7%; with dopamine-β-hydroxylase [5] (setting [10]) it was 108 ± 5.7%. For the same compound, the response vs control in vivo at 200 mg/kg with dopamine-β-hydroxylase [2] (setting [7]) was found to be 135 ± 17%; in the data set with dopamine-β-hydroxylase [3] (setting [7]) it was 73.5 ± 2.2%; in the data set with dopamine-β-hydroxylase [4] (setting [7]), 131 ± 4.4%; in the data set on dopamine-β-hydroxylase [5] (setting [11]) it was 114 ± 2.7%; in the data set on dopamine-β-hydroxylase [5] (setting [12]), 68.8 ± 2.4%; in the data set with dopamine-β-hydroxylase [5] (setting [13]), 98.2 ± 3.9%.

Consider `S=C(Nc1ccccc1)Nc1nccs1` [Compound U-14624, N-phenyl-N'-(2-thiazolyl)-thiourea, reference compound], for which the response vs control in vivo at 200 mg/kg in the data set on dopamine-β-hydroxylase [2] (4 h) turned out to be 111%; with dopamine-β-hydroxylase [3] (4 h) it was 72%; in the data set with dopamine-β-hydroxylase [4] (4 h), 106%; in the data set with dopamine-β-hydroxylase [5] (setting [14]) it was 121%; in the data set with dopamine-β-hydroxylase [5] (setting [15]), 31.6%; in the data set with dopamine-β-hydroxylase [5] (setting [16]), 137%. The response vs control in vivo at 200 mg/kg with dopamine-β-hydroxylase [5] (4 h, read-out: Level, cerebrum 5-HIAA (5-hydroxy-indolylacetic acid)) was determined as 175%.

As for `CCN(CC)C(=S)S` [DDC-Na, sodium diethyldithiocarbamate, reference compound], the figures for the response vs control in vivo at 400 mg/kg in the data set on dopamine-β-hydroxylase [5] (setting [14]) and with dopamine-β-hydroxylase [5] (setting [15]) were 120% and 64.1%, respectively.

With `CCN(CC)C(=S)SSC(=S)N(CC)CC` [DS, bis(diethylthiocarbamoyl)-disulfide, reference compound], the response vs control in vivo at 200 mg/kg with dopamine-β-hydroxylase [3] (4 h) turned out to be 52%; with dopamine-β-hydroxylase [4] (4 h), 98%; with dopamine-β-hydroxylase [5] (setting [14]), 111%; in the data set with dopamine-β-hydroxylase [5] (setting [15]), 22.5%; in the data set with dopamine-β-hydroxylase [5] (setting [16]), 122%. The response vs control in vivo at 400 mg/kg was found to be 66% in the data set with dopamine-β-hydroxylase [3] (4 h); 102% in the data set with dopamine-β-hydroxylase [4] (4 h); 112% in the data set on dopamine-β-hydroxylase [5] (setting [14]); 24.1% with dopamine-β-hydroxylase [5] (setting [15]); 117% in the data set on dopamine-β-hydroxylase [5] (setting [16]). Moreover, the dopamine-β-hydroxylase inhibiting effects result in the data set with dopamine-β-hydroxylase [1] is on record as “strong dopamine-β-hydroxylase inhibiting effects”.

As for `CCCCc1ccc(C(=O)O)nc1` [Fusaric acid, 5-butyl-picolinic acid], the dopamine-β-hydroxylase inhibiting effects result with dopamine-β-hydroxylase [1] is given as “strong dopamine-β-hydroxylase inhibiting effects”.

In the case of `NNc1nncc2ccccc12` [Hydralazine, hydralazine], the dopamine-β-hydroxylase inhibiting effects result with dopamine-β-hydroxylase [1] is listed as “possess dopamine-β-hydroxylase inhibiting effects”.

With `O=C(CO)c1coc(=O)c2c(O)cccc12` [Oosponol], the dopamine-β-hydroxylase inhibiting effects result in the data set with dopamine-β-hydroxylase [1] is “strong dopamine-β-hydroxylase inhibiting effects”.

For `CC(N)Cc1ccccc1` (centres unmarked) [amphetamine], the dopamine-β-hydroxylase inhibiting effects entry in the data set on dopamine-β-hydroxylase [1] is reported as “possess dopamine-β-hydroxylase inhibiting effects”.

As for `NNCc1ccccc1` [benzylhydrazine], in the data set on dopamine-β-hydroxylase [1], the dopamine-β-hydroxylase inhibiting effects result is on record as “exert dopamine-β-hydroxylase inhibiting effects” and the duration of activity result is given as “exert their activities for a short period”.

For `CCN(CC)C(=S)S` [diethyl dithiocarbamate], the dopamine-β-hydroxylase inhibiting effects result with dopamine-β-hydroxylase [1] is listed as “strong dopamine-β-hydroxylase inhibiting effects”.

Take `Cn1cc[nH]c1=S` [methimazol]: in the data set on dopamine-β-hydroxylase [1], the dopamine-β-hydroxylase inhibiting effects entry was “possess dopamine-β-hydroxylase inhibiting effects”.
